Like-named read-outs stand apart in the source and are kept apart here.
Experiments:
hCB2R [1] = biological target: T1, hCB2R (Homo sapiens, UniProt P34972); experiment: CB2R bias analysis (operational model, cAMP inhibition vs βarrestin2); type: cell-based; conditions: CP55,940 as reference agonist; >0 cAMP bias, <0 βarrestin2 bias
T1 construct: host or cells: CHO-K1 (PathHunter)
Description: (§1) Estimates of Ki, EC50, Emin, and Emax were determined using non-linear regression with variable slope (four parameters) (GraphPad, Prism, v. 8.0). […] One-way analysis of variance (ANOVA), followed by Tukey’s post-hoc test, was used for statistical analyses (p < 0.05 determined to be significant); and Bartlett’s test was used to confirm homogeneity of variance (GraphPad).

hCB1R [2] = biological target: T2, hCB1R (Homo sapiens, UniProt P21554); experiment: cell-based; type: cell-based; conditions: for EC50: CHO hCB1R, 90 min, value with 95% CI, read-out: CB1R βarrestin2 recruitment EC50; for Emax: read-out: CB1R βarrestin2 recruitment Emax; for βarrestin2 recruitment to CB1R, activity in words: relative to CP55940
T2 construct: expressed in transfected cells; host or cells: CHO-K1

hCB1R [3] = biological target: T2, hCB1R; experiment: CB1R bias analysis (operational model, cAMP inhibition vs βarrestin2); type: cell-based; conditions: for CB1R bias between cAMP inhibition and βarrestin2 recruitment, ∆∆LogR (cAMP—βarr2), in words: CP55,940 as reference agonist, >0 cAMP bias, <0 βarrestin2 bias
Description: as §1

hCB2R [4] = biological target: T1, hCB2R; experiment: [^3H]CP55,940 competition (radioligand displacement) binding to CB2R; conditions: for CB2R [^3H]CP55,940 Emin: bottom of the concentration–response curve, mean ± SEM
hCB1R [5] = biological target: T2, hCB1R; experiment: biochemical; type: binding; conditions: for CB1R [^3H]CP55,940 Emin: bottom of the concentration–response curve, mean ± SEM
hCB2R [6] = biological target: T1, hCB2R; experiment: HitHunter inhibition of FSK-stimulated cAMP, CB2R; type: cell-based
hCB2R [7] = biological target: T1, hCB2R; experiment: PathHunter βarrestin2 recruitment, CB2R; type: cell-based; conditions: for βarrestin2 recruitment to CB2R, activity in words: relative to CP55,940
hCB1R [8] = biological target: T2, hCB1R; experiment: cell-based; type: cell-based; conditions: for EC50: CHO hCB1R, 10 µM FSK, 90 min, value with 95% CI, read-out: CB1R cAMP Inhibition EC50; for Emax: read-out: CB1R cAMP Inhibition Emax
male C57Bl/6 mice [9] = experiment: Catalepsy, ring holding assay; type: in vivo; conditions: 0.1–10 mg/kg i.p.; 5 min; % MPE 60 s
Description: (§2) Adult male C57BL/6 mice aged 6–10 weeks (mean weight 24 ± 0.5 g) were purchased from Charles River Labs (Senneville, QC). Animals were group housed (three per cage) with ad libitum access to food, water, and environmental enrichment and maintained on a 12 h light/dark cycle. Mice were randomly assigned to receive i.p. injections of vehicle (1:1:18 ethanol:emulphor:saline) or 0.1–10 mg/kg SCRA (n ≥ 4 per group). All protocols have been described previously and were in accordance with the guidelines detailed by the Canadian Council on Animal Care and approved by the Animal Research Ethics Board and the Scientific Merit Review Committee for Animal Behaviour at the University of Saskatchewan. […]
(§3) Modified tetrad testing (catalepsy, body temperature, tail flick assay) was conducted according to previously described methods, which are summarized briefly here. […] Catalepsy was assessed in the ring holding assay 5 min following injection with mouse forepaws clasped to a 5 mm ring positioned 5 cm above the surface of the testing space. The length of time the ring was held was recorded (s) to a maximum time of 60 s (i.e. MPE = 60 s). Internal body temperature was measured 15 min after injection. Anti-nociception was determined by assessing tail flick latency 20 min after injection. […]

male C57Bl/6 mice [10] = experiment: Anti-nociception, tail flick assay; type: in vivo; conditions: 0.1–10 mg/kg i.p.; 20 min; 52 °C; % MPE 20 s
Description: as §2, §3

male C57Bl/6 mice [11] = experiment: Internal body temperature; type: in vivo; conditions: 0.1–10 mg/kg i.p.; 15 min
Description: as §2, §3

male C57Bl/6 mice [12] = experiment: Elevated plus maze (EPM); type: in vivo; conditions: 1.0 mg/kg i.p., 30 min after treatment, 5 min trial
Description: Adult male C57BL/6 mice aged 6–10 weeks (mean weight 24 ± 0.5 g) were purchased from Charles River Labs (Senneville, QC). Animals were group housed (three per cage) with ad libitum access to food, water, and environmental enrichment and maintained on a 12 h light/dark cycle. Mice were randomly assigned to receive i.p. injections of vehicle (1:1:18 ethanol:emulphor:saline) or 0.1–10 mg/kg SCRA (n ≥ 4 per group). All protocols have been described previously and were in accordance with the guidelines detailed by the Canadian Council on Animal Care and approved by the Animal Research Ethics Board and the Scientific Merit Review Committee for Animal Behaviour at the University of Saskatchewan. The following steps were taken to ensure our study was in keeping with the ARRIVE guidelines: (1) power analyses were conducted to determine the minimum number of animals required for the study; (2) animals were purchased—rather than bred—to limit animal waste; and (3) all assessments of animal behaviour were made by individuals blinded to the treatment group,[57].
EPM was conducted according to methods adapted from Marks et al.. The EPM was built from a plywood base painted blue with blue corrugated plastic floor and walls. The floor of the maze was composed of perpendicular interlocking arms (110 cm long × 10 cm wide) with two arms having 45 cm walls (closed arms) and two arms having no walls and a 0.5 cm edge (open arms), all elevated 45 cm from the ground. Trials began with the mouse in the central zone facing an open arm. Trials lasted 5 min and began 30 min after SCRA treatment. An arm entry was considered to be all four limbs leaving the central zone. Arm entries and the percent time spent in open versus closed arms were recorded by an observer blinded to the treatment group. Less time in the open arms and more time in the closed arms was used as a model of anxiogenic behaviour.

T1 sequence (P34972 whole entry): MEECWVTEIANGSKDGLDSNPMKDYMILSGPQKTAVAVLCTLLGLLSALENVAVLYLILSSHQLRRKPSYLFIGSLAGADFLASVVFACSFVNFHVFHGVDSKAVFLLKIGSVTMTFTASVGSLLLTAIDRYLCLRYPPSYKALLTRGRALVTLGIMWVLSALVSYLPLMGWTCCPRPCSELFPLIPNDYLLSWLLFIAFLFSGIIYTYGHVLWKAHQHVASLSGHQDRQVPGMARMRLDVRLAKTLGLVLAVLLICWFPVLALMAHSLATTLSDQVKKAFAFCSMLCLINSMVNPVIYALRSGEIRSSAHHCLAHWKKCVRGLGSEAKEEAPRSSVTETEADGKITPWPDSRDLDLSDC
T2 sequence (P21554 whole entry): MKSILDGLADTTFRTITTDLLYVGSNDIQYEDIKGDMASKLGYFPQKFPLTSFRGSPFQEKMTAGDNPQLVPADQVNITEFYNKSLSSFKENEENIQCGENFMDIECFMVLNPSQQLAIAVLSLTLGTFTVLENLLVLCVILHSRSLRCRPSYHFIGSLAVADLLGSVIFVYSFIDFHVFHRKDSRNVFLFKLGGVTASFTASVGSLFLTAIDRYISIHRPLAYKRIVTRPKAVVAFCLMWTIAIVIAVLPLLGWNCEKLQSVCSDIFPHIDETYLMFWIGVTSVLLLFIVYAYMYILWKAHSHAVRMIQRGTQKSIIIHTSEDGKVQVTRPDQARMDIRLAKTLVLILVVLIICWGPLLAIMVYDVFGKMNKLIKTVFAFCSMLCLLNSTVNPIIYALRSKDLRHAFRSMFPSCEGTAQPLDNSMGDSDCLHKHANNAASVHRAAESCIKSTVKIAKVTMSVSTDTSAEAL

Row | SMILES | CB2R bias between cAMP inhibition and βarrestin2 recruitment, ∆∆LogR (cAMP—βarr2), in words (hCB2R [1]) | EC50 (hCB1R [2]) | Emax (hCB1R [2]) | βarrestin2 recruitment to CB1R, activity in words (hCB1R [2]) | CB1R bias between cAMP inhibition and βarrestin2 recruitment, ∆∆LogR (cAMP—βarr2), in words (hCB1R [3]) | Ki (hCB2R [4]) | CB2R [^3H]CP55,940 Emin (hCB2R [4]) | Ki (hCB1R [5]) | CB1R [^3H]CP55,940 Emin (hCB1R [5]) | EC50 (hCB2R [6]) | Emax (hCB2R [6]) | EC50 (hCB2R [7]) | Emax (hCB2R [7]) | βarrestin2 recruitment to CB2R, activity in words (hCB2R [7]) | EC50 (hCB1R [8]) | Emax (hCB1R [8]) | also measured
1 | CCC(Cl)CCn1nc(C(=O)NC(C(N)=O)C(C)C)c2ccccc21 (centres unmarked) [3-chloro AB-PINACA] | significant bias toward the recruitment of βarrestin2 | 140 nM | 340 ± 11% | greater potency and produced supramaximal EMax responses | did not display a bias | 52 nM | 84 ± 4.3 % | 170 nM | 65 ± 5.1 % | 19 nM | 87 ± 15% | 8.8 nM | 130 ± 4.5% | greater potency and produced supramaximal EMax responses | 0.04 nM | 94 ± 2.8% | CB1R versus CB2R selectivity, βarrestin2 recruitment (hCB1R [2]; CB1R vs CB2R): more potent for CB2R-dependent recruitment of βarrestin2 than CB1R-dependent recruitment of βarrestin2; CB1R versus CB2R selectivity, cAMP inhibition potency (hCB1R [8]; CB1R vs CB2R): more potent at CB1R relative to CB2R
2 | COC(=O)[C@@H](NC(=O)c1nn(CCCCF)c2ccccc12)C(C)(C)C [4-fluoro MDMB-BINACA] | significant bias toward the recruitment of βarrestin2 | 88 nM | 240 ± 10% | greater potency and produced supramaximal EMax responses | significant bias toward the recruitment of βarrestin2 | 0.41 nM | 57 ± 11 % | 99 nM | 52 ± 7.5 % | 0.56 nM | 95 ± 11% | 120 nM | 130 ± 8.2% | greater potency and produced supramaximal EMax responses | 10 nM | 87 ± 5.6% | Catalepsy response (male C57Bl/6 mice [9]): full agonist; Anti-nociceptive response, tail flick (male C57Bl/6 mice [10]): full agonist; Observed CB1R bias in cell culture (hCB1R [3]; cAMP inhibition vs βarrestin2): βarrestin2; Affinity for CB2R compared with CP55,940, in words (hCB2R [4]): significantly greater affinity; CB1R versus CB2R selectivity, receptor affinity (hCB1R [5]; CB1R vs CB2R [^3H]CP55,940 binding): greater affinity at CB2R relative to CB1R; Body temperature (hypothermia) response (male C57Bl/6 mice [11]): full agonist; EPM time in the central quadrant (male C57Bl/6 mice [12]): majority of their time in the central quadrant immobile; EPM time in the open arms (male C57Bl/6 mice [12]): approximately the same amount of time in the open arm as vehicle-treated mice; EPM total arm entries (male C57Bl/6 mice [12]; vs vehicle): reduced total arm entries
3 | O=C(Oc1cccc2cccnc12)c1nn(CCCCCF)c2ccccc12 [5-fluoro NPB-22] | did not display a bias | 830 nM | 210 ± 12% | equipotent, but produced supramaximal EMax responses | significant bias toward the recruitment of βarrestin2 | 4.3 nM | 34 ± 8.1 % | 47 nM | 2.3 ± 7.8% | 3.2 nM | 110 ± 7.6% | 280 nM | 120 ± 3.7% | not different with regard to potency relative to the reference agonist CP55,940, and produced supramaximal EMax responses | 53 nM | 96 ± 7% | 

From article PMC8134483 (Scientific Reports, 2021)
